Source: PubChem BioAssay AID1259407 (Chemical Carcinogenesis Research Information System (CCRIS), 2018)
The source made the active and inactive calls. The rule behind the calls is not given here.

Tested on: CCRIS mutagenicity, Ames/micronucleus/aberration tests
Assay: CCRIS mutagenicity studies
[1] = Test System: AMES SALMONELLA TYPHIMURIUM, Strain/Indicator: TA100, Metabolic Activation: NONE, Method: STANDARD PLATE
[2] = Test System: AMES SALMONELLA TYPHIMURIUM, Strain/Indicator: TA98, Metabolic Activation: NONE, Method: PREINCUBATION
[3] = Test System: AMES SALMONELLA TYPHIMURIUM, Strain/Indicator: TA100, Metabolic Activation: NONE, Method: PREINCUBATION
[4] = Test System: AMES SALMONELLA TYPHIMURIUM, Strain/Indicator: TA1535, Metabolic Activation: NONE, Method: PREINCUBATION
[5] = Test System: AMES SALMONELLA TYPHIMURIUM, Strain/Indicator: TA98, Metabolic Activation: RAT, LIVER, S-9, AROCLOR 1254, Method: STANDARD PLATE
[6] = Test System: AMES SALMONELLA TYPHIMURIUM, Strain/Indicator: TA100, Metabolic Activation: RAT, LIVER, S-9, AROCLOR 1254, Method: STANDARD PLATE

Structure (SMILES): O=P1(Oc2ccccc2)OCc2ccccc2O1 (configuration not stated)
- mutagenic call [1]: active; positive
- mutagenic call (Test System: AMES SALMONELLA TYPHIMURIUM, Strain/Indicator: TA100, Metabolic Activation: RAT, LIVER, MICROSOMES, Method: STANDARD PLATE): active; positive

Structure (SMILES): CCCC(=O)Cl
- mutagenic call (Test System: AMES SALMONELLA TYPHIMURIUM, Strain/Indicator: TA98, Metabolic Activation: HAMSTER, LIVER, S-9, AROCLOR 1254 (30%), Method: PREINCUBATION): inactive; negative
- mutagenic call [2]: inactive; negative
- mutagenic call (Test System: AMES SALMONELLA TYPHIMURIUM, Strain/Indicator: TA98, Metabolic Activation: RAT, LIVER, S-9, AROCLOR 1254 (30%), Method: PREINCUBATION): inactive; negative
- mutagenic call (Test System: AMES SALMONELLA TYPHIMURIUM, Strain/Indicator: TA100, Metabolic Activation: HAMSTER, LIVER, S-9, AROCLOR 1254 (30%), Method: PREINCUBATION): inactive; negative
- mutagenic call [3]: inactive; negative
- mutagenic call (Test System: AMES SALMONELLA TYPHIMURIUM, Strain/Indicator: TA100, Metabolic Activation: RAT, LIVER, S-9, AROCLOR 1254 (30%), Method: PREINCUBATION): inactive; negative

Structure (SMILES): [O][Cl+][O-]
- mutagenic call (End Point: IN VIVO MICRONUCLEUS, Test System: BONE MARROW POLYCHROMATIC ERYTHROCYTES, Species: MOUSE, Strain/Sex: DDY/MALE, Route: IP): active; positive

Structure (SMILES): CC(C)(C)c1ccc(O)c(O)c1
- mutagenic call (Test System: AMES SALMONELLA TYPHIMURIUM, Strain/Indicator: TA97, Metabolic Activation: HAMSTER LIVER S-9, AROCLOR 1254 (10% OR 30%), Method: PREINCUBATION): inactive; negative
- mutagenic call (Test System: AMES SALMONELLA TYPHIMURIUM, Strain/Indicator: TA97, Metabolic Activation: NONE, Method: PREINCUBATION): inactive; negative
- mutagenic call (Test System: AMES SALMONELLA TYPHIMURIUM, Strain/Indicator: TA97, Metabolic Activation: RAT LIVER S-9, AROCLOR 1254 (10% OR 30%), Method: PREINCUBATION): inactive; negative
- mutagenic call (Test System: AMES SALMONELLA TYPHIMURIUM, Strain/Indicator: TA98, Metabolic Activation: HAMSTER LIVER S-9, AROCLOR 1254 (10% OR 30%), Method: PREINCUBATION): inactive; negative
- mutagenic call [2]: inactive; negative
- mutagenic call (Test System: AMES SALMONELLA TYPHIMURIUM, Strain/Indicator: TA98, Metabolic Activation: RAT LIVER S-9, AROCLOR 1254 (10% OR 30%), Method: PREINCUBATION): inactive; negative
- mutagenic call (Test System: AMES SALMONELLA TYPHIMURIUM, Strain/Indicator: TA100, Metabolic Activation: HAMSTER LIVER S-9, AROCLOR 1254 (10% OR 30%), Method: PREINCUBATION): inactive; negative
- mutagenic call [3]: inactive; negative
- mutagenic call (Test System: AMES SALMONELLA TYPHIMURIUM, Strain/Indicator: TA100, Metabolic Activation: RAT LIVER S-9, AROCLOR 1254 (10% OR 30%), Method: PREINCUBATION): inactive; negative
- mutagenic call (Test System: AMES SALMONELLA TYPHIMURIUM, Strain/Indicator: TA102, Metabolic Activation: HAMSTER LIVER S-9, AROCLOR 1254 (10% OR 30%), Method: PREINCUBATION): inactive; negative
- mutagenic call (Test System: AMES SALMONELLA TYPHIMURIUM, Strain/Indicator: TA102, Metabolic Activation: NONE, Method: PREINCUBATION): inactive; negative
- mutagenic call (Test System: AMES SALMONELLA TYPHIMURIUM, Strain/Indicator: TA102, Metabolic Activation: RAT LIVER S-9, AROCLOR 1254 (10% OR 30%), Method: PREINCUBATION): inactive; negative
- mutagenic call (Test System: AMES SALMONELLA TYPHIMURIUM, Strain/Indicator: TA104, Metabolic Activation: HAMSTER LIVER S-9, AROCLOR 1254 (10% OR 30%), Method: PREINCUBATION): inactive; negative
- mutagenic call (Test System: AMES SALMONELLA TYPHIMURIUM, Strain/Indicator: TA104, Metabolic Activation: NONE, Method: PREINCUBATION): inactive; negative
- mutagenic call (Test System: AMES SALMONELLA TYPHIMURIUM, Strain/Indicator: TA104, Metabolic Activation: RAT LIVER S-9, AROCLOR 1254 (10% OR 30%), Method: PREINCUBATION): inactive; negative
- mutagenic call (Test System: AMES SALMONELLA TYPHIMURIUM, Strain/Indicator: TA1535, Metabolic Activation: HAMSTER LIVER S-9, AROCLOR 1254 (10% OR 30%), Method: PREINCUBATION): inactive; negative
- mutagenic call [4]: inactive; negative
- mutagenic call (Test System: AMES SALMONELLA TYPHIMURIUM, Strain/Indicator: TA1535, Metabolic Activation: RAT LIVER S-9, AROCLOR 1254 (10% OR 30%), Method: PREINCUBATION): inactive; negative

Structure (SMILES): N.NC1CCCC1.O=C([O-])CC(O)C(=O)[O-].[Pt+2] (configuration not stated)
- mutagenic call (End Point: IN VIVO MICRONUCLEUS, Test System: BONE MARROW, Species: MOUSE, Strain/Sex: WILD TYPE/MALE, Route: INTRAPERITONEAL): active; positive

Structure (SMILES): CC(=O)Nc1ccc(C(=O)/C=C/c2ccccc2)cc1
- mutagenic call (Test System: AMES SALMONELLA TYPHIMURIUM, Strain/Indicator: TA98, Metabolic Activation: NONE, Method: STANDARD PLATE): inactive; negative
- mutagenic call [5]: inactive; negative
- mutagenic call [1]: inactive; negative
- mutagenic call [6]: inactive; negative

Structure (SMILES): CN(C)CCNC(=O)c1ccc2ccc3cccnc3c2n1
- mutagenic call (Test System: AMES SALMONELLA TYPHIMURIUM, Strain/Indicator: TA1537, Metabolic Activation: NONE, Method: STANDARD PLATE): active; positive

Structure (SMILES): OC1c2ccc3c(c2C2OC2C1O)-c1cccc2cccc-3c12 (configuration not stated)
- mutagenic call (Test System: AMES SALMONELLA TYPHIMURIUM, Strain/Indicator: TA97A, Metabolic Activation: NONE, Method: PREINCUBATION): active; positive
- mutagenic call [2]: active; positive
- mutagenic call [3]: active; positive

Structure (SMILES): Cc1nc2ccc3ccc4ccc(O)cc4c3c2n1C
- mutagenic call (Test System: AMES SALMONELLA TYPHIMURIUM, Strain/Indicator: TA98, Metabolic Activation: RAT, LIVER, S-9, AROCLOR, Method: STANDARD PLATE): active; positive

Structure (SMILES): O=[N+]([O-])c1cccc2c1-c1ccc3ccc4cccc5cc-2c1c3c45
- mutagenic call (Test System: AMES SALMONELLA TYPHIMURIUM, Strain/Indicator: TA98, Metabolic Activation: RAT, LIVER, S-9, AROCLOR 1254, Method: PREINCUBATION): active; positive
- mutagenic call (Test System: AMES SALMONELLA TYPHIMURIUM, Strain/Indicator: TA100, Metabolic Activation: RAT, LIVER, S-9, AROCLOR 1254, Method: PREINCUBATION): active; positive

Structure (SMILES): COc1ccc(Cc2nccc3cc(OC)c(OC)cc23)cc1OC
- mutagenic call (Test System: AMES SALMONELLA TYPHIMURIUM, Strain/Indicator: TA100, Metabolic Activation: RAT, LIVER, S-9, PHENOBARBITAL AND BETA-NAPHTHOFLAVONE, Method: PREINCUBATION): active; positive

Structure (SMILES): CCCCCCCCCCCCCCCC(=O)O
- mutagenic call [2]: inactive; negative
- mutagenic call (Test System: AMES SALMONELLA TYPHIMURIUM, Strain/Indicator: TA98, Metabolic Activation: RAT LIVER S-9, PHENOBARBITAL AND BETA-NAPHTHOFLAVONE, Method: PREINCUBATION): inactive; negative
- mutagenic call [3]: inactive; negative
- mutagenic call (Test System: AMES SALMONELLA TYPHIMURIUM, Strain/Indicator: TA100, Metabolic Activation: RAT LIVER S-9, PHENOBARBITAL AND BETA-NAPHTHOFLAVONE, Method: PREINCUBATION): inactive; negative
- mutagenic call [4]: inactive; negative
- mutagenic call (Test System: AMES SALMONELLA TYPHIMURIUM, Strain/Indicator: TA1535, Metabolic Activation: RAT LIVER S-9, PHENOBARBITAL AND BETA-NAPHTHOFLAVONE, Method: PREINCUBATION): inactive; negative
- mutagenic call (Test System: AMES SALMONELLA TYPHIMURIUM, Strain/Indicator: TA1537, Metabolic Activation: NONE, Method: PREINCUBATION): inactive; negative
- mutagenic call (Test System: AMES SALMONELLA TYPHIMURIUM, Strain/Indicator: TA1537, Metabolic Activation: RAT LIVER S-9, PHENOBARBITAL AND BETA-NAPHTHOFLAVONE, Method: PREINCUBATION): inactive; negative
- mutagenic call (Test System: E.COLI, Strain/Indicator: WP2UVRA/PKM101, Metabolic Activation: NONE, Method: PREINCUBATION): inactive; negative
- mutagenic call (Test System: E.COLI, Strain/Indicator: WP2UVRA/PKM101, Metabolic Activation: RAT LIVER S-9, PHENOBARBITAL AND BETA-NAPHTHOFLAVONE, Method: PREINCUBATION): inactive; negative

Structure (SMILES): Cc1ccc2c(c1)Cc1cc(C)ccc1-2
- mutagenic call [5]: inactive; negative
- mutagenic call [6]: inactive; negative
